Assay results as given in patent publication US11981669B2, “1,7-naphthyridine derivative and preparation method and use therefor” (CSPC ZHONGQI PHARMACEUTICAL TECHNOLOGY (SHIJIAZHUANG) CO., …, priority 2018, dated 2024).

Tests used:
PHD3 = PHD3 (Homo sapiens (Human), UniProt Q9H6Z9); experiment: PHD enzyme assay (Eu-VBC TR-fluorescence); type: biochemical
Description: (§1) VHL/elongin B/elongin C were constructed, expressed and purified, and VHL was labeled. PHD1, PHD2 and PHD3 were constructed, expressed and purified. VBC protein was labeled with DELFIA Eu-Labeling Kit. A NeutrAvidin 96-well plate was blocked after the addition of 200 μL Blocker Casein to each well, followed by incubation for 30 min. Each well was washed 3 times by adding 200 μL of washing buffer each time. A 200 nM HIF-1a 556-574 solution was prepared with washing buffer, and 100 μL of the solution was added to each well, followed by incubation for 60 min. Each well was washed 3 times by adding 200 μL of washing buffer each time. A 1 mM Biotin solution was prepared with Blocker Casein, and 100 μL of the solution was added to each well, followed by incubation for 30 min. Each well was washed 3 times by adding 200 μL of washing buffer each time. A 20× compound solution was prepared with PHD reaction buffer, with the final concentration of DMSO being 1%. PHD solutions were prepared with PHD reaction buffer, and the concentrations of PHD1, 2, and 3 solutions were 10 ng/μL, 5 ng/μL, and 15 ng/μL, respectively. 95 μL of the PHD solution was added to each compound well, followed by the addition of 5 μL of the compound solution, 95 μL of the PHD solution was added to each full active well, followed by the addition of 5 μL of the PHD reaction buffer; and 100 μL of the PHD reaction buffer was added to each blank well. After mixing homogeneously, the wells were incubated for 60 min. Each well was washed 3 times by adding 200 μL of washing buffer each time A 1 ng/μL Eu-VBC solution was prepared with Eu-VBC binding buffer, and 100 μL of the solution was added to each well, followed by incubation for 60 min. Each well was washed 6 times by adding 200 μL DELFIA Wash Concentrate each time. 100 μL DELFIA Enhancement Solution was added to each well. A microplate reader was used to read TR-Fluorescence at Ex340 and Em615. The flurescence of the sample wells was recorded as FLUsample, the flurescence of the full active wells was recorded as FLU100%, and the flurescence of the blank well was recorded as FLU0%.

PHD1 = PHD1 (Homo sapiens (Human), UniProt Q96KS0); experiment: PHD enzyme assay (Eu-VBC TR-fluorescence); type: biochemical
Chain of PHD1 (Q96KS0 whole entry): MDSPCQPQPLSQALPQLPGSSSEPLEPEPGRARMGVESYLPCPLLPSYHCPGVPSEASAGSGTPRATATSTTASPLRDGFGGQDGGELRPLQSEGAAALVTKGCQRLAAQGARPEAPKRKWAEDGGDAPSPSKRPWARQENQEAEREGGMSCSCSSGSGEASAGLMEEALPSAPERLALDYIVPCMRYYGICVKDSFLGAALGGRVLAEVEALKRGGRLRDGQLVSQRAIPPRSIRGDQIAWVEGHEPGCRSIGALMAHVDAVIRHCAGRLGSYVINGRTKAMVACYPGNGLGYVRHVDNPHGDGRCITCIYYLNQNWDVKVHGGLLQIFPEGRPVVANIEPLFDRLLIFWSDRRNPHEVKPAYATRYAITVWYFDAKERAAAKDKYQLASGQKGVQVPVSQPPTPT
Description: as §1

PHD2 = PHD2 (Homo sapiens (Human), UniProt Q9GZT9); experiment: PHD enzyme assay (Eu-VBC TR-fluorescence); type: biochemical
Chain of PHD2 (Q9GZT9 whole entry): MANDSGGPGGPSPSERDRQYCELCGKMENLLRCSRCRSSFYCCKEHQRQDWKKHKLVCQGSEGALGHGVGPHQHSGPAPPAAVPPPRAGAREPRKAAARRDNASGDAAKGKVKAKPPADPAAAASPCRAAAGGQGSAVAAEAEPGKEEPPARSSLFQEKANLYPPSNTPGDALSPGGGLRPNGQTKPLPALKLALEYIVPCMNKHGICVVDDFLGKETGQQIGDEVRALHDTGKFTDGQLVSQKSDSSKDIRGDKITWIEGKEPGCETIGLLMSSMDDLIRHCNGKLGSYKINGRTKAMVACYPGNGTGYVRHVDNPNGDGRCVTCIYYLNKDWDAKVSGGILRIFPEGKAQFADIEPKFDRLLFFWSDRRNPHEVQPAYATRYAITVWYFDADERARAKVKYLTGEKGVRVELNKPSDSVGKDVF
Description: as §1, with “A 200 nM HIF-1a 556-574 solution was prepared with washing buffer, and 100 μL of the solution was added to each well, followed by incubation for 60 min.” left out, “PHD solutions were prepared with PHD reaction buffer, and the concentrations of PHD1, 2, and 3 solutions were 10 ng/μL, 5 ng/μL, and 15 ng/μL, respectively. 95 μL of the PHD solution was added to each compound well, followed by the addition of 5 μL of the compound solution, 95 μL of the PHD solution was added to each full active well, followed by the addition of 5 μL of the PHD reaction buffer; and 100 μL of the PHD reaction buffer was added to each blank well.” left out, “A microplate reader was used to read TR-Fluorescence at Ex340 and Em615.” left out

reticulocytes = experiment: Effect on reticulocytes of normal mice; type: in vivo, Balb/c mice; design: Reticulocytes (RETIC), average: unit not given here; conditions: 10 mg/kg p.o., once; 72 h after administration
Description: 72 Balb/c mice, male, were divided into 12 groups, 6 mice in each treatment group. In the positive drug control groups: the mice in the FG-4592 treatment groups were orally administered once, at two doses of 10 mg/kg and 50 mg/kg, and the mice in the rhEPO treatment group was intraperitoneaily injected once, at a dose of 100 IU/kg. The compounds of the present disclosure were all orally administered once at a dose of 10 mg/kg. 72 h after the administration, blood was collected from the orbit of all animals, and subjected to EDTA-K2 anticoagulation. Then reticulocytes (RETIC) were counted with an automatic blood cell analyzer.

CYP2C9 = CYP2C9 (Homo sapiens (Human), UniProt P11712); experiment: CYP enzyme inhibition assay; type: in vitro ADME
Chain of CYP2C9 (P11712 whole entry): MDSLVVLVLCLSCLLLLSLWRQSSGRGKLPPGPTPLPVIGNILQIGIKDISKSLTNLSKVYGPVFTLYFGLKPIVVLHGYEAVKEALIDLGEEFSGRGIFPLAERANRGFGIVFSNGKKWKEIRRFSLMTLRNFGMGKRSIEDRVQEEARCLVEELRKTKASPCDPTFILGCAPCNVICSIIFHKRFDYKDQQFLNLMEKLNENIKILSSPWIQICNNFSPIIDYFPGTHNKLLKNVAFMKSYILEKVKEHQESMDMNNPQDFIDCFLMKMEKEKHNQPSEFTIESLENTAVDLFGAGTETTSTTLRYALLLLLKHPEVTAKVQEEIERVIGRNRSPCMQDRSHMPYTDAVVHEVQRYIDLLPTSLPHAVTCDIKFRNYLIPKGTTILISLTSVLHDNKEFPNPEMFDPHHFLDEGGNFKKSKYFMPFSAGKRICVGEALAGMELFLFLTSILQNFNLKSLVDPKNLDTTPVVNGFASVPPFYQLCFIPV
Source text: (§2) The compounds of the present disclosure were subjected to the CYP450 enzyme inhibition assay.

CYP3A4-M = CYP3A4-M (Homo sapiens (Human), UniProt P08684); experiment: CYP enzyme inhibition assay; type: in vitro ADME
Chain of CYP3A4-M (P08684 whole entry): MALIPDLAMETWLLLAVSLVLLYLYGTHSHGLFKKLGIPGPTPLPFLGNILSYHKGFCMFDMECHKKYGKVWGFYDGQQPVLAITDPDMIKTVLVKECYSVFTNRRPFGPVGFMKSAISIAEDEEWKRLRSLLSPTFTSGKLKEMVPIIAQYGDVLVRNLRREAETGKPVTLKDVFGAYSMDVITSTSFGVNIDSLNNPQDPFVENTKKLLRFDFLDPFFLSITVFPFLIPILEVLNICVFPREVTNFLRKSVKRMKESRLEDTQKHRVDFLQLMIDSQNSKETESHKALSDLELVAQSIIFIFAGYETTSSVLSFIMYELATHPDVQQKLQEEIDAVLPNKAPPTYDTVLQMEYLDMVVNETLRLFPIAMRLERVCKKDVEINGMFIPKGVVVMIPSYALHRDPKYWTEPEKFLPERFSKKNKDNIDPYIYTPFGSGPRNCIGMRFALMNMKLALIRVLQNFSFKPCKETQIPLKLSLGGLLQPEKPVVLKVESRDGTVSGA
Source text: as §2

CYP2C19 = CYP2C19 (Homo sapiens (Human), UniProt P33261); experiment: CYP enzyme inhibition assay; type: in vitro ADME
Chain of CYP2C19 (P33261 whole entry): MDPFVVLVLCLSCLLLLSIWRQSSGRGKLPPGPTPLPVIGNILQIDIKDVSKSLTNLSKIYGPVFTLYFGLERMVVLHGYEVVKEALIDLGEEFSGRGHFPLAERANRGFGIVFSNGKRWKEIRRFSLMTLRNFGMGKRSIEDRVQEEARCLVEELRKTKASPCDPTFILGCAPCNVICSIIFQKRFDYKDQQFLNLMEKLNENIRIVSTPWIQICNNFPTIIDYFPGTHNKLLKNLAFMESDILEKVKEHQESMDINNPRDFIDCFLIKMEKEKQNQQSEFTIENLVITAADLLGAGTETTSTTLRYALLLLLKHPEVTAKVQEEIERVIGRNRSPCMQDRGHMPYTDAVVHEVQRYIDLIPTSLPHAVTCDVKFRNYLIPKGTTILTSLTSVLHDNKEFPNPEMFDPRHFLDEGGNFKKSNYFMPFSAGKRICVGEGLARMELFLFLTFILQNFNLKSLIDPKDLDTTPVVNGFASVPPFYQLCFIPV
Source text: as §2

CYP2D6 = CYP2D6 (Homo sapiens (Human), UniProt P10635); experiment: CYP enzyme inhibition assay; type: in vitro ADME
Chain of CYP2D6 (P10635 whole entry): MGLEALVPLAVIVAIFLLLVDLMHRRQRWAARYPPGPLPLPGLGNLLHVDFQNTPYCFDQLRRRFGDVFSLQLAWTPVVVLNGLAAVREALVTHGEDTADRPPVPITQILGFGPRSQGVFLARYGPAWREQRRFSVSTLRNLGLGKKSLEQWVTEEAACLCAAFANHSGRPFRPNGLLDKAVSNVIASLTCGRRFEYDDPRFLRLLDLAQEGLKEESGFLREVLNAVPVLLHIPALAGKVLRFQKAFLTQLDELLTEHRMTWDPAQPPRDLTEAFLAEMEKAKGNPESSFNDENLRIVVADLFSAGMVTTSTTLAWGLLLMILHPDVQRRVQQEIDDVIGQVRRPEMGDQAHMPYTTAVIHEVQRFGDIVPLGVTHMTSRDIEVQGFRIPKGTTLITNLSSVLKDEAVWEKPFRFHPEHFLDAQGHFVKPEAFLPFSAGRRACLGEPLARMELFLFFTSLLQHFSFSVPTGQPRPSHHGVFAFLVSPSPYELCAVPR
Source text: as §2

[1] = system: Erythropoietin in liver cancer cells Hep3B; experiment: Expression of erythropoietin in liver cancer cells Hep3B in vitro (EPO ELISA of supernatant); type: cell-based, Human
Description: The cells were adherent cultured overnight, and after discarding the used medium. In the 96-well culture plate, the cells were washed once with 0.5% FBS-containing DMEM medium. […] 0.5% FBS-containing DMEM medium was used instead of the drug solution as the control well. After incubation in a 37° C., 5% CO2 incubator for 24 h, the supernatant was taken as a sample and frozen at −20° C. for later use. An Elisa kit (abeam) was used to detect EPO in the cell supernatant. A microplate reader was used to detect the OD value at 450/620 nm.

erythropoietin = experiment: Expression of erythropoietin in vivo (plasma EPO ELISA after single oral dose); conditions: once; for EPO OD value: plasma 6 hours after administration; for Promotion of expression of erythropoietin in vivo: at 10 mg/kg;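 for all read-outs here: male C57 mice given compound by mouth, five animals per treatment group, with EPO in plasma measured by ELISA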
Description: (2) 30 c57 mice, male, were divided into 6 groups, 5 mice in each treatment group. […] 6 hours after the administration, blood was taken, and plasma was collected for EPO detection with an ELISA kit (R&D Co.).

HIF-1α = experiment: Expression of HIF-1α protein in Hep3B cells (western blot, grayscale analysis); type: cell-based, Human; conditions: for fold induction at 30 µM: Homo sapiens, read-out: HIF-1α level of the compound of the present disclosure/HIF-1α level of blank control
Description: (§3) A test compound was dissolved in dimethyl sulfoxide into a 100 mM stock solution, and then was diluted with 0.5% FBS-containing DMEM medium into 30 μM, 10 μM and 3 μM for later use. Human liver cancer cells Hep3B were seeded in a six-well plate at a density of 2.25*10^5 cells/well, 2 mL per well. After cultivation overnight, the cells were treated with compounds at different concentrations for 2 h. The proteins were extracted for western blot and further grayscale analysis.

hERG channels = hERG channels (Homo sapiens (Human), UniProt Q12809); experiment: cell-based; type: cell-based; conditions: for Inhibitory effect on hERG current at the highest test concentration: human, 30 μM
Chain of hERG channels (Q12809 whole entry, the tested form may be a part): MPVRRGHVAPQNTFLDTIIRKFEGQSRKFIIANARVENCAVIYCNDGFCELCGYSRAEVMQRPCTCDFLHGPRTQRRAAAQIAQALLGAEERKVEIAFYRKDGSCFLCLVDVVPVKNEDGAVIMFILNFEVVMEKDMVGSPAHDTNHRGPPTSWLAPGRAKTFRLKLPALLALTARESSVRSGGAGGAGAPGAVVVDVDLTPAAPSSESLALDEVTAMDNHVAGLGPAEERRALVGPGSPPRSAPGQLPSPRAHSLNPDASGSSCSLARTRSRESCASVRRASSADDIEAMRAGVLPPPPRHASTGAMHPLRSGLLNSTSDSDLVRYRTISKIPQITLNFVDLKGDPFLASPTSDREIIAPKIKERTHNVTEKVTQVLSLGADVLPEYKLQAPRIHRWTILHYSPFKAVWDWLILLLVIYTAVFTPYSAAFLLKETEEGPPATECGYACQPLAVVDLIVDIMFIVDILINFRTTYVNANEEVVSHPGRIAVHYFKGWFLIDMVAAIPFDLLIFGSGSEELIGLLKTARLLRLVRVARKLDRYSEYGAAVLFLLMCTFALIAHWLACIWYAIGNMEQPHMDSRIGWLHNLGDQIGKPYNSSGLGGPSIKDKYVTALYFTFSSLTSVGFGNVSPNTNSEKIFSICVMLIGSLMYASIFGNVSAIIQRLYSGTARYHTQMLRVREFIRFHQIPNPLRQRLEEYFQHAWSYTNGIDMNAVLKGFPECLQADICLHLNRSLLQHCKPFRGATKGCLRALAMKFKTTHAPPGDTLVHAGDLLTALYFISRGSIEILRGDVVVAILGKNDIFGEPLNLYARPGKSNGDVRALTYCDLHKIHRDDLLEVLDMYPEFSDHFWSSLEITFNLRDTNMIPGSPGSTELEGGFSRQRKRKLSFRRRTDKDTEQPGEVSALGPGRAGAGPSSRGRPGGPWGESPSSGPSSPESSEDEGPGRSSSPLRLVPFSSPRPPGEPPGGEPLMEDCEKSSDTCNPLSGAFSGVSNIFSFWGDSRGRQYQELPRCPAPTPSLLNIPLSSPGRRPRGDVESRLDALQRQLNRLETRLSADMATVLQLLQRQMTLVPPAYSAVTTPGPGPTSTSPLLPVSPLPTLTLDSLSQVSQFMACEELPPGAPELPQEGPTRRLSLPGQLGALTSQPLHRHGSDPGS
Description: Whole-cell patch clamp technique was used to record hERG current. A cell suspension was added to a 35 mm Petri dish, and the dish was then placed on an inverted microscope stage. After the adherence of cells, they were perfused with extracellular fluid at a flow rate of 1-2 mL/min. A glass microelectrode was drawn by a microelectrode puller in two steps, and the pipette tip resistance was between 2-5 MΩ. After establishing the whole cell recording, the clamp potential was held at −80 mV, followed by depolarization to +60 mV when given voltage stimulation and then repolarization to −50 mV to elicit hERG tail current. All recordings were performed after the current was stable. Extracellular perfusion administration started from a low concentration, staying for 5-10 min at each concentration until the current was stable, and then cells were further perfused with the next concentration.

CYP1A2 = CYP1A2 (Homo sapiens (Human), UniProt P05177); type: in vitro ADME
Chain of CYP1A2 (P05177 whole entry): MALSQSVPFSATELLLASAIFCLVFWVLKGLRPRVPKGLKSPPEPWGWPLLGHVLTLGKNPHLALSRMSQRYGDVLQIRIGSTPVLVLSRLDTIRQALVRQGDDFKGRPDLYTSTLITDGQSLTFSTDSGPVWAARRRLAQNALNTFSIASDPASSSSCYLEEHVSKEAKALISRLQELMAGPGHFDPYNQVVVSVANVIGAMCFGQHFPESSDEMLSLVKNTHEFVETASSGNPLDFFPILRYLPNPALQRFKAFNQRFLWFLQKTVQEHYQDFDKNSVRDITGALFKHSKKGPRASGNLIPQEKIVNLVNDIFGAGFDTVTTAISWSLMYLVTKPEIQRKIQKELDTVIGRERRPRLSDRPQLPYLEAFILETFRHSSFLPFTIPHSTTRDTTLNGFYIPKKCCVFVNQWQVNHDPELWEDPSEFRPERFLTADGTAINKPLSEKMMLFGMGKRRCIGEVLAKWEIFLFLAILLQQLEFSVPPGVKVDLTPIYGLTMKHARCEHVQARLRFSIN
Source text: as §2

HIF-2α = experiment: Expression of HIF-2α protein in Hep3B cells (western blot, grayscale analysis); type: cell-based, Human; conditions: for fold induction at 30 µM: Homo sapiens, read-out: HIF-2α level of the compound of the present disclosure/HIF-2α level of blank control
Description: as §3

[2] = 2 h, compound at 30 μM, 10 μM and 3 μM

Chain of PHD3 (Q9H6Z9 whole entry): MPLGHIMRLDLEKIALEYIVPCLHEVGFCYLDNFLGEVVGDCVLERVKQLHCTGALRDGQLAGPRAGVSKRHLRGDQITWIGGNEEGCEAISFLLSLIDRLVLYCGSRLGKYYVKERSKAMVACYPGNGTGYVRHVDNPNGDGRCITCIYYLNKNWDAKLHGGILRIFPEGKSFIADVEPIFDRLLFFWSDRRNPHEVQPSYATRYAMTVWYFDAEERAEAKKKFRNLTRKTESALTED

| Compound | IC50 (PHD3) [nM] | IC50 (PHD1) [nM] | Reticulocytes (RETIC), average (reticulocytes) | IC50 (CYP2C9) [nM] | IC50 (CYP3A4-M) [nM] | IC50 (CYP2C19) [nM] | IC50 (CYP2D6) [nM] | EPO-enhancing effect compared with positive control drug FG4592 [1] | EPO OD value (erythropoietin; 10 mg/kg) | EPO OD value (erythropoietin; 50 mg/kg) | Promotion of expression of erythropoietin in vivo (erythropoietin) | HIF-1α protein expression compared with blank control (HIF-1α) | fold induction at 30 µM (HIF-1α; [2]) | IC50 (hERG channels) [nM] | Inhibitory effect on hERG current at the highest test concentration (hERG channels) | IC50 (CYP1A2) [nM] | HIF-2α protein expression compared with blank control (HIF-2α) | fold induction at 30 µM (HIF-2α; [2]) | further results |
| --- | --- | --- | --- | --- | --- | --- | --- | --- | --- | --- | --- | --- | --- | --- | --- | --- | --- | --- | --- |
| O=C(O)CNC(=O)c1nc(Cl)c2cc(Oc3ccccc3)ccc2c1O [Comparative Example 1, reference compound] | 561 | 273 |  |  |  |  |  |  |  |  |  |  |  |  |  |  |  |  |  |
| O=C(O)CNC(=O)c1ncc2nc(Oc3ccccc3)ccc2c1O [Comparative Example 2, 2-(5-hydroxy-2-phenoxy-1,7-naphthyridine-6-formamido) acetic acid, reference compound] | 492 | 335 |  |  |  |  |  |  |  |  |  |  |  |  |  |  |  |  |  |
| O=C(O)CNC(=O)c1nc(Br)c2cc(Oc3ccccc3)ccc2c1O [Comparative Example 3, reference compound] | 544 | 452 |  |  |  |  |  |  |  |  |  |  |  |  |  |  |  |  | IC50 (PHD2): 951 nM |
| O=C(O)CNC(=O)c1nc(Cl)c2nc(Oc3ccccc3Cl)ccc2c1O [Link-124, 2-(2-(2-chlorophenoxy)-5-hydroxy-8-chloro-1,7-naphthyridine-6-formamido) Acetic Acid] |  |  | 6.80 | > 50000 | > 50000 | > 50000 | > 50000 | higher than that of the positive control drug FG4592 | D (D represents EPO OD value>3) | D (D represents EPO OD value>3) | significantly promote the expression of erythropoietin | higher than that of the blank control | 4.5 to 8.5 | > 30000 | far from the IC50 value | > 50000 | higher than that of the blank control | 4.5 to 8.5 |  |
| O=C(O)CNC(=O)c1nc(Br)c2nc(Oc3ccc(Cl)cc3)ccc2c1O [Link-129, 2-(2-(4-chlorophenoxy)-5-hydroxy-8-bromo-1,7-naphthyridine-6-formamido) Acetic Acid] |  |  | 7.30 | > 50000 | > 50000 | > 50000 | > 50000 |  | D (D represents EPO OD value>3) | D (D represents EPO OD value>3) | significantly promote the expression of erythropoietin | higher than that of the blank control | 1 to 4.5 | > 30000 | far from the IC50 value | > 50000 | higher than that of the blank control | 1 to 4.5 |  |
| O=C(O)CNC(=O)c1nc(Cl)c2nc(Oc3ccc(F)cc3)ccc2c1O [Link-130, 2-(2-(4-fluorophenoxy)-5-hydroxy-8-chloro-1,7-naphthyridine-6-formamido) Acetic Acid] |  |  |  |  |  |  |  | higher than that of the positive control drug FG4592 | C (C represents 2<EPO OD value<3) | D (D represents EPO OD value>3) | significantly promote the expression of erythropoietin | higher than that of the blank control |  |  |  |  | higher than that of the blank control |  | EPO level of the compound of the present disclosure/EPO level of FG4592 ([1]; 24 h, compound at 100 μM and 10 μM, supernatant ELISA): C (C represents EPO ratio ≥ 1.3); HIF-1α level of the compound of the present disclosure/HIF-1α level of blank control (HIF-1α; [2]): B (B represents 4.5 < protein ratio < 8.5); HIF-2α level of the compound of the present disclosure/HIF-2α level of blank control (HIF-2α; [2]): B (B represents 4.5 < protein ratio < 8.5) |
